Values after ≈ are worked out from the molar mass of the structure shown. Read-outs that look alike come from different tables or passages of the source.
Key:
[1] = system: Bacteroides spp. spontaneous mutants; assay: Broth microdilution MIC of spontaneous mutants; format: cell-based; details: for MIC: read-out: MIC
Summary of the method: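 Isolates from drug selection plates were subcultured on agar containing drug at the selection concentration and identified by MALDI, then MIC was determined by CLSI broth microdilution (M100-S28) with serial two-fold dilutions. Plates were pre-reduced 1 h in an anaerobic chamber; final inoculum ~1×10^6 CFU/mL.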

B. vulgatus ATCC 8482 = assay: Broth microdilution MIC (time-kill study); format: cell-based, Bacteroides vulgatus
E. coli ATCC 25922 [2] = assay: Broth microdilution MIC (time-kill study); format: cell-based, Escherichia coli
Klebsiella spp. = assay: Broth microdilution MIC, 50 clinical isolates (20 K. oxytoca, 30 K. pneumoniae); format: cell-based
Protocol: Minimal inhibitory concentration (MIC) values were determined by broth microdilution or agar dilution in accordance with guidelines from the Clinical and Laboratory Standards Institute (CLSI; (1) “Methods for Dilution Antimicrobial Susceptibility Tests for Bacteria That Grow Aerobically; Approved Standard; 11th ed.” CLSI standard M07-A11, 2018; (2) “Performance Standards for Antimicrobial Susceptibility Testing; Twenty-Eighth Informational Supplement,” CLSI document M100-S28, 2018; and (3) “Methods for Antimicrobial Susceptibility Testing of Anaerobic Bacteria; Approved Standard—Eighth Edition,” CLSI document M11-A8, 2012).
Tested aerobically by broth microdilution: • Escherichia coli, n=50 • Klebsiella spp., n=50 • Pseudomonas aeruginosa, n=50 • Streptococcus spp., n=50 • Staphylococcus aureus, n=50 • Enterococcus faecalis, n=50 • Enterobacter aerogenes, n=50 • Proteus mirabilis, n=50
Broth microdilution testing of aerobic bacteria was conducted in cation-adjusted Mueller Hinton broth (MHBII). For testing streptococci, lysed horse blood (LHB) was added to MHBII broth at a final concentration of 3%. Where LHB was used, it was added after filtering.
Broth microdilution susceptibility testing in 96-well microplates was conducted in accordance with CLSI methods (1) and (2). Automated liquid handlers were used to conduct serial dilutions and liquid transfers, including the Multidrop 384 (Labsystems, Helsinki, Finland), Biomek 2000, and the Biomek FX (Beckman Coulter, Fullerton, Calif.). All wells in columns 2 through 12 of a standard 96-well microdilution plate (Costar 3795) were filled with 150 μL of the appropriate diluent. Then, 300 μL of the test agents were added to the wells of column 1 of the plates at 100× the highest final concentration to be tested. Serial two-fold dilutions were made across the rows through column 11 using the Biomek 2000. The wells of column 12 contained no drug and served as the growth control wells. This plate served as the “mother plate” from which MIC assay plates or “daughter plates” were made.
The daughter plates were loaded with 190 μL per well of the appropriate medium using the Multidrop 384. The daughter plates were created using the Biomek FX which transferred 2 μL of drug solution from each well of a mother plate to each corresponding well of the daughter plate in a single step. A standardized inoculum of each test organism was prepared per CLSI methods (1) to equal a 0.5 McFarland standard, followed by a dilution of 1:20 for aerobes and 1:10 for anaerobes. The plates were then inoculated with 10 μL of the diluted inoculum using the Biomek 2000 from low to high drug concentration, resulting in a final concentration of approximately 5×10^5 CFU/mL per well. An un-inoculated plate was incubated in parallel for each medium for the purpose of assessing solubility of the drug in the test media.
Inoculated plates were stacked 3 or 4 high, covered with a sterile lid on the top plate, placed into boxes with CO2 planchets (streptococci) or plastic bags (all other isolates). Plates were incubated at 35° C. for 16-24 hr in ambient air for aerobes or for 42-48 hr in the anaerobic environment of the Bactron II anaerobe chamber (Sheldon Manufacturing Co.; Cornelius, Oreg.). Following incubation, the microplates were removed from the incubator and viewed from the bottom using a plate viewer. The MIC values were read and recorded as the lowest concentration of drug that inhibited visible growth of the organism as per CLSI methods (1) and (2).

E. coli ATCC 25922 [3] = assay: Time-kill assay; format: cell-based, Escherichia coli; details: 2×, 4×, 8× MIC; 2, 6, 24 hr

## CO/N=C(\C(=O)N[C@@H]1C(=O)N2C(C(=O)O)=C(CSc3nc(=O)c(=O)[nH]n3C)CS[C@H]12)c1csc(N)n1 [ceftriaxone]
[1]; B. fragilis ATCC 25285, selected on rifaximin 4X MIC, Colony A
  MIC: 16 µg/mL
[1]; B. fragilis ATCC 25285, selected on rifaximin 4X MIC, Colony B
  MIC: 32 µg/mL
[1]; B. fragilis ATCC 25285, selected on rifaximin 8X MIC, Colony A
  MIC: 32 µg/mL
[1]; B. fragilis ATCC 25285, selected on rifaximin 8X MIC, Colony B
  MIC: 32 µg/mL
[1]; B. fragilis ATCC 25285 Parent
  MIC: 32 µg/mL
[1]; B. ovatus MMX 3503, selected on rifaximin 4X MIC, Colony A
  MIC: 128 µg/mL
[1]; B. ovatus MMX 3503, selected on rifaximin 4X MIC, Colony B
  MIC: 64 µg/mL
[1]; B. ovatus MMX 3503, selected on rifaximin 8X MIC, Colony A
  MIC: > 128 µg/mL
[1]; B. ovatus MMX 3503, selected on rifaximin 8X MIC, Colony B
  MIC: 64 µg/mL
[1]; B. ovatus MMX 3503 Parent
  MIC: 128 µg/mL
[1]; B. vulgatus ATCC 8482, one of two isolates selected at 4× the MIC
  broth microdilution MIC higher than parent: 4 fold
[1]; B. vulgatus ATCC 8482, selected on ceftriaxone 4X MIC, Colony A
  MIC: 2 µg/mL
[1]; B. vulgatus ATCC 8482, selected on ceftriaxone 4X MIC, Colony B
  MIC: 4 µg/mL
[1]; B. vulgatus ATCC 8482, selected on rifaximin 4X MIC, Colony A
  MIC: 2 µg/mL
[1]; B. vulgatus ATCC 8482, selected on rifaximin 4X MIC, Colony B
  MIC: 1 µg/mL
[1]; B. vulgatus ATCC 8482, selected on rifaximin 8X MIC, Colony A
  MIC: 2 µg/mL
[1]; B. vulgatus ATCC 8482, selected on rifaximin 8X MIC, Colony B
  MIC: 2 µg/mL
[1]; B. vulgatus ATCC 8482 Parent (Table 50)
  MIC: 1 µg/mL
[1]; B. vulgatus ATCC 8482 Parent (Table 54)
  MIC: 1 µg/mL
B. vulgatus ATCC 8482; B. vulgatus ATCC 8482
  MIC: 2 µg/mL (≈ 3.61 µM)
B. vulgatus ATCC 8482; Phocaeicola vulgatus, ATCC8482, broth microdilution, read-out: MIC
  MIC: 2 µg/mL (≈ 3.61 µM)
E. coli ATCC 25922 [2]; E. coli ATCC 25922
  MIC: 0.06 µg/mL (≈ 0.108 µM)
E. coli ATCC 25922 [2]; Escherichia coli, ATCC25922, broth microdilution, read-out: MIC
  MIC: 0.06 µg/mL (≈ 0.108 µM)
Klebsiella spp.
  % I: 6%
  % R: 28%
  % S: 66%
  Mode: 0.06 µg/mL
Klebsiella spp.; 0.015 μg/mL
  Cumulative percentage of isolates at MIC: 2.0%
  Number of test isolates at MIC: 1
Klebsiella spp.; 0.03 μg/mL
  Cumulative percentage of isolates at MIC: 12.0%
  Number of test isolates at MIC: 5
Klebsiella spp.; 0.06 μg/mL
  Cumulative percentage of isolates at MIC: 14.0%
  Number of test isolates at MIC: 16
Klebsiella spp.; 0.5 μg/mL
  Cumulative percentage of isolates at MIC: 64.0%
  Number of test isolates at MIC: 1
Klebsiella spp.; 1 μg/mL
  Cumulative percentage of isolates at MIC: 66.0%
  Number of test isolates at MIC: 1
Klebsiella spp.; 2 μg/mL
  Cumulative percentage of isolates at MIC: 72.0%
  Number of test isolates at MIC: 3
Klebsiella spp.; 8 μg/mL
  Cumulative percentage of isolates at MIC: 76.0%
  Number of test isolates at MIC: 2
Klebsiella spp.; 32 μg/mL
  Cumulative percentage of isolates at MIC: 80.0%
  Number of test isolates at MIC: 2
Klebsiella spp.; >128 μg/mL
  Cumulative percentage of isolates at MIC: 100.0%
  Number of test isolates at MIC: 10
Klebsiella spp.; Klebsiella
  MIC90: > 128 µg/mL
Klebsiella spp.; Klebsiella, read-out: MIC50
  MIC50: 0.12 µg/mL (≈ 0.216 µM)
Klebsiella spp.; listed as CTR
  % I: 6%
  % R: 28%
  MIC90: >128 µg/mL
E. coli ATCC 25922 [3]
  time-kill kinetics outcome (bactericidal = ≥3 log reduction in CFU per mL): bactericidal at 8×MIC at 24 hr

Source: US20210386367A1, “DEVICES AND SYSTEMS FOR GASTROINTESTINAL MICROBIOME DETECTION AND MANIPULATION” (Progenity, Inc., priority 2018, published 2021)
